Assay results from the supplement of paper PMC11208160.

Assay: recombinant UMI read abundance after kanamycin selection (control-corrected) (log10(CPM+1)); higher = more efficient recombination; extreme values may be limits of the assay; sequences stand for … in AGTGCAGAGAAAATCGGCCAGTTTTCTCTGCCTGCAGTCCGCATGCCGTGGGACCCCTTGGGTTCTAACCTGTTGCCTAGATTTATGCAGCGGACTGCCTTTCTCCCAAAGTGATAAACCGG…AGGTTGGTTTCACT; site = the 11-nt donor
How it was run: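 In a pooled Escherichia coli screen for the IS621 bridge recombinase, donor and donor-binding-loop pairs were each placed with a 12-nt UMI on a plasmid bearing a promoterless kanamycin gene. This library was co-electroporated with a target plasmid encoding a fixed target and T7-inducible recombinase, and cells were plated either on IPTG (0.07 mM) plus kanamycin or without selection, in two replicates each. Recombinant UMIs were PCR-amplified across the donor–target junction and sequenced, and counts were converted to CPM, averaged over replicates, scaled by control-derived factors and reported as log10(CPM+1).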
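Further: IS621 bridge recombinase in Escherichia coli cells against a fixed T5 target plasmid.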

“CGCTCGACATGGACCGGTTTTCCCGGTAATCCGTATTTGTT (site CGATCGACTAA)” and “CGCTCGACATGGACCGGTTTTCCCGGTAATCCGTATTTGTT (site CGCTCGACTAA)” are the same in “recombinant UMI read abundance (log10)” value: 0 for the first, 0 for the second.

“CGCTCGACATGGACCGGTTTTCCCGGTAATCCGTATTTGTT (site CGGTCGACTAA)” and “CGCTCGACATGGACCGGTTTTCCCGGTAATCCGTATTTGTT (site CGTTCGACTAA)” are the same in “recombinant UMI read abundance (log10)” value: 0 for the first, 0 for the second.

First: CGCTGGCCATGGACCGGTTTTCCCGGTAATCCGTATTTGCT (site CGCTGGCCTAG)
Second: CGCTTGGCATGGACCGGTTTTCCCGGTAATCCGTATTTGCT (site CGATTGGCTAG)
The “recombinant UMI read abundance (log10)” value of the first is higher: 0.278 for the first, 0 for the second.

“CGCTTGGCATGGACCGGTTTTCCCGGTAATCCGTATTTGCT (site CGCTTGGCTAG)” and “CGCTTGGCATGGACCGGTTTTCCCGGTAATCCGTATTTGCT (site CGGTTGGCTAG)” are the same in “recombinant UMI read abundance (log10)” value: 0 for the first, 0 for the second.

Going from “CGCTTGGCATGGACCGGTTTTCCCGGTAATCCGTATTTGCT (site CGTTTGGCTAG)” to “CGCTTGTCATGGACCGGTTTTCCCGGTAATCCGTATTTGCG (site CGCTTGTCTCG)”, the “recombinant UMI read abundance (log10)” value rises from 0 to 1.46.

First: CGGAAATCATGGACCGGTTTTCCCGGTAATCCGTATTTGCT (site CGGAAATCTAG)
Second: CGGAAATCATGGACCGGTTTTCCCGGTAATCCGTATTTGCT (site CGGACATCTAG)
The “recombinant UMI read abundance (log10)” value of the first is higher: 2.06 for the first, 0.293 for the second.

Going from “CGGAAATCATGGACCGGTTTTCCCGGTAATCCGTATTTGCT (site CGGAGATCTAG)” to “CGGAAATCATGGACCGGTTTTCCCGGTAATCCGTATTTGCT (site CGGATATCTAG)”, the “recombinant UMI read abundance (log10)” value falls from 0.215 to 0.

Compared with “CGGAACGCATGGACCGGTTTTCCCGGTAATCCGTATTTGTT (site CGGAACGCTAA)”, “CGGAACGCATGGACCGGTTTTCCCGGTAATCCGTATTTGTT (site CGGAATCCTAA)” is lower in “recombinant UMI read abundance (log10)” value: 3.15 for the first, 0.0213 for the second.

First: CGGAAGACATGGACCGGTTTTCCCGGTAATCCGTATTTGTT (site CGGAAGACTAA)
Second: CGGAAGACATGGACCGGTTTTCCCGGTAATCCGTATTTGTT (site CGGAATCCTAA)
The “recombinant UMI read abundance (log10)” value of the first is higher: 2.3 for the first, 0.00737 for the second.

First: CGGAAGCCATGGACCGGTTTTCCCGGTAATCCGTATTTGAT (site CGGAAGCCTAT)
Second: CGGAAGCCATGGACCGGTTTTCCCGGTAATCCGTATTTGAT (site CGGAATCCTAA)
The “recombinant UMI read abundance (log10)” value of the first is higher: 0.713 for the first, 0 for the second.

“CGGAAGCCATGGACCGGTTTTCCCGGTAATCCGTATTTGCA (site AGGAAGACTTG)” and “CGGAAGCCATGGACCGGTTTTCCCGGTAATCCGTATTTGCA (site CGGAAGCCTTG)” are the same in “recombinant UMI read abundance (log10)” value: 0 for the first, 0 for the second.

First: CGGAATCCATGGACCGGTTTTCCCGGTAATCCGTATTTGCA (site CGGAATCCTAA)
Second: CGGAATCCATGGACCGGTTTTCCCGGTAATCCGTATTTGCA (site CGGAATCCTTG)
The “recombinant UMI read abundance (log10)” value of the first is lower: 0 for the first, 0.628 for the second.

Compared with “CGGAATTCATGGACCGGTTTTCCCGGTAATCCGTATTTGAA (site CGGAATTCTTT)”, “CGGAATTCATGGACCGGTTTTCCCGGTAATCCGTATTTGTA (site CGGAATCCTAA)” is lower in “recombinant UMI read abundance (log10)” value: 1.67 for the first, 0.00369 for the second.

Compared with “CGGAATTCATGGACCGGTTTTCCCGGTAATCCGTATTTGTA (site CGGAATTCTTA)”, “CGGACAACATGGACCGGTTTTCCCGGTAATCCGTATTTGCT (site CGGACAACTAG)” is lower in “recombinant UMI read abundance (log10)” value: 2.78 for the first, 1.89 for the second.

Going from “CGGACAACATGGACCGGTTTTCCCGGTAATCCGTATTTGCT (site CGGACACCTAG)” to “CGGACAACATGGACCGGTTTTCCCGGTAATCCGTATTTGCT (site CGGACAGCTAG)”, the “recombinant UMI read abundance (log10)” value rises from 0 to 0.34.

Compared with “CGGACAACATGGACCGGTTTTCCCGGTAATCCGTATTTGCT (site CGGACATCTAG)”, “CGGACATCATGGACCGGTTTTCCCGGTAATCCGTATTTGCA (site CGGACATCTAG)” is lower in “recombinant UMI read abundance (log10)” value: 2.39 for the first, 0 for the second.

“CGGACATCATGGACCGGTTTTCCCGGTAATCCGTATTTGCA (site CGGACATCTCG)” and “CGGACATCATGGACCGGTTTTCCCGGTAATCCGTATTTGCA (site CGGACATCTGG)” are the same in “recombinant UMI read abundance (log10)” value: 0 for the first, 0 for the second.

First: CGGACATCATGGACCGGTTTTCCCGGTAATCCGTATTTGCA (site CGGACATCTTG)
Second: CGGACATCATGGACCGGTTTTCCCGGTAATCCGTATTTGGT (site CGGACATCTAA)
The “recombinant UMI read abundance (log10)” value of the first is higher: 2.76 for the first, 0.416 for the second.

Compared with “CGGACATCATGGACCGGTTTTCCCGGTAATCCGTATTTGGT (site CGGACATCTAC)”, “CGGACATCATGGACCGGTTTTCCCGGTAATCCGTATTTGGT (site CGGACATCTAG)” is lower in “recombinant UMI read abundance (log10)” value: 2.13 for the first, 0 for the second.

First: CGGACATCATGGACCGGTTTTCCCGGTAATCCGTATTTGGT (site CGGACATCTAT)
Second: CGGACCTCATGGACCGGTTTTCCCGGTAATCCGTATTTGCT (site CGGACATCTAG)
The “recombinant UMI read abundance (log10)” value of the first is higher: 1.15 for the first, 0.00704 for the second.

First: CGGACCTCATGGACCGGTTTTCCCGGTAATCCGTATTTGCT (site CGGACCTCTAG)
Second: CGGACCTCATGGACCGGTTTTCCCGGTAATCCGTATTTGCT (site CGGACGTCTAG)
The “recombinant UMI read abundance (log10)” value of the first is higher: 3.12 for the first, 0.00745 for the second.

First: CGGACCTCATGGACCGGTTTTCCCGGTAATCCGTATTTGCT (site CGGACTTCTAG)
Second: CGGACGTCATGGACCGGTTTTCCCGGTAATCCGTATTTGCT (site CGGACATCTAG)
The “recombinant UMI read abundance (log10)” value of the first is lower: 0 for the first, 2.54 for the second.

Compared with “CGGACGTCATGGACCGGTTTTCCCGGTAATCCGTATTTGCT (site CGGACCTCTAG)”, “CGGACGTCATGGACCGGTTTTCCCGGTAATCCGTATTTGCT (site CGGACGTCTAG)” is higher in “recombinant UMI read abundance (log10)” value: 0 for the first, 3.06 for the second.

Going from “CGGACGTCATGGACCGGTTTTCCCGGTAATCCGTATTTGCT (site CGGACTTCTAG)” to “CGGACTACATGGACCGGTTTTCCCGGTAATCCGTATTTGAC (site AGGACTACTGT)”, the “recombinant UMI read abundance (log10)” value falls from 0.597 to 0.

Going from “CGGACTACATGGACCGGTTTTCCCGGTAATCCGTATTTGAC (site CGGACTACTGT)” to “CGGACTACATGGACCGGTTTTCCCGGTAATCCGTATTTGAC (site GGGACTACTGT)”, the “recombinant UMI read abundance (log10)” value falls from 2.98 to 0.

First: CGGACTACATGGACCGGTTTTCCCGGTAATCCGTATTTGAC (site TGGACTACTGT)
Second: CGGACTCCATGGACCGGTTTTCCCGGTAATCCGTATTTGGT (site CGGAATCCTAA)
The “recombinant UMI read abundance (log10)” value of the first is higher: 1.51 for the first, 0.00968 for the second.

Going from “CGGACTCCATGGACCGGTTTTCCCGGTAATCCGTATTTGGT (site CGGACTCCTAC)” to “CGGAGAGCATGGACCGGTTTTCCCGGTAATCCGTATTTGAA (site CGGAGAGCTTT)”, the “recombinant UMI read abundance (log10)” value rises from 0.215 to 2.27.

First: CGGAGCACATGGACCGGTTTTCCCGGTAATCCGTATTTGCA (site CGGAGCACTTG)
Second: CGGAGGACATGGACCGGTTTTCCCGGTAATCCGTATTTGCA (site AGGAAGACTTG)
The “recombinant UMI read abundance (log10)” value of the first is higher: 2.66 for the first, 0 for the second.

Going from “CGGAGGACATGGACCGGTTTTCCCGGTAATCCGTATTTGCA (site CGGAGGACTTG)” to “CGGAGGCCATGGACCGGTTTTCCCGGTAATCCGTATTTGTT (site CGGAATCCTAA)”, the “recombinant UMI read abundance (log10)” value falls from 2.78 to 0.00304.

First: CGGAGGCCATGGACCGGTTTTCCCGGTAATCCGTATTTGTT (site CGGAGGCCTAA)
Second: CGGATAGCATGGACCGGTTTTCCCGGTAATCCGTATTTGTT (site CGGATAGCTAA)
The “recombinant UMI read abundance (log10)” value of the first is lower: 0 for the first, 2 for the second.

First: CGGCATCCATGGACCGGTTTTCCCGGTAATCCGTATTTGTG (site CGGAATCCTAA)
Second: CGGCATCCATGGACCGGTTTTCCCGGTAATCCGTATTTGTG (site CGGCATCCTCA)
The “recombinant UMI read abundance (log10)” value of the first is lower: 0 for the first, 0.644 for the second.

Compared with “CGGCCGGCATGGACCGGTTTTCCCGGTAATCCGTATTTGGC (site AGGCCGGCTGC)”, “CGGCCGGCATGGACCGGTTTTCCCGGTAATCCGTATTTGGC (site CGGCCGGCTGC)” is higher in “recombinant UMI read abundance (log10)” value: 0 for the first, 1.21 for the second.

“CGGCCGGCATGGACCGGTTTTCCCGGTAATCCGTATTTGGC (site GGGCCGGCTGC)” and “CGGCCGGCATGGACCGGTTTTCCCGGTAATCCGTATTTGGC (site TGGCCGGCTGC)” are the same in “recombinant UMI read abundance (log10)” value: 0 for the first, 0 for the second.

Going from “CGGCGCACATGGACCGGTTTTCCCGGTAATCCGTATTTGTA (site CGGCGCACTTA)” to “CGGCTACCATGGACCGGTTTTCCCGGTAATCCGTATTTGCT (site CAGCTACCTAG)”, the “recombinant UMI read abundance (log10)” value falls from 1.57 to 0.

“CGGCTACCATGGACCGGTTTTCCCGGTAATCCGTATTTGCT (site CCGCTACCTAG)” and “CGGCTACCATGGACCGGTTTTCCCGGTAATCCGTATTTGCT (site CGGCTACCTAG)” are the same in “recombinant UMI read abundance (log10)” value: 0 for the first, 0 for the second.

Going from “CGGCTACCATGGACCGGTTTTCCCGGTAATCCGTATTTGCT (site CTGCTACCTAG)” to “CGGCTGACATGGACCGGTTTTCCCGGTAATCCGTATTTGCC (site CGGCTGACTGG)”, the “recombinant UMI read abundance (log10)” value rises from 0 to 1.22.

“CGGCTGACATGGACCGGTTTTCCCGGTAATCCGTATTTGTT (site CGGCTGACTAA)” and “CGGGAACCATGGACCGGTTTTCCCGGTAATCCGTATTTGAG (site CGGGAACCTAT)” are within 0.2 log units of each other in “recombinant UMI read abundance (log10)” value: 0.0767 for the first, 0 for the second.

With “CGGGAACCATGGACCGGTTTTCCCGGTAATCCGTATTTGAG (site CGGGAACCTCT)” the “recombinant UMI read abundance (log10)” value was 0.013.
